{"source": "patent US4755522A", "about": "“Derivatives of N-[3-(2,4,6-trimethoxybenzoyl)propyl]piperidine, and their use in therapeutics” (priority 1986, dated 1988)", "key": {"[1]": {"system": "amphetaminic stereotypies", "experiment": "Amphetaminic stereotypies in the rat", "type": "in vivo", "procedure": "(§1) The compound of example 2 in solution in distilled water (pH 5.5 to 6.0) was administered by intraperitoneal route at a rate of 20 ml/kg in mice (male, NMRI, C.E.R. January) and of 5 ml/kg to rats (male, CD1, Sprague Dawley, Charles River)."}, "intergroup aggressivity": {"system": "intergroup aggressivity", "experiment": "Intergroup aggressivity", "settings": "in vivo", "procedure": "as §1"}, "reserpinic hypothermia": {"system": "reserpinic hypothermia", "experiment": "Reserpinic hypothermia", "settings": "in vivo", "procedure": "as §1"}, "[2]": {"system": "arrhythmias caused by I.V. injection of adrenaline", "experiment": "Arrhythmias caused by I.V. adrenaline in dogs with coronary artery previously ligatured", "type": "in vivo, dog"}, "man": {"system": "man", "experiment": "Anti-depressant effect in man", "type": "in vivo"}, "arterial pressure": {"system": "arterial pressure", "settings": "prior-technique compound; cited from earlier work"}, "[3]": {"system": "arrhythmias with aconitine", "experiment": "Arrhythmias with aconitine in the guinea-pig", "type": "in vivo", "procedure": "The compound was administered by intravenous route at a dose of 10 mg/kg to a series of 10 albino guinea-pigs of 380 to 495 g, anaesthetized with urethane.\n5 minutes later, they receive an I.V. perfusion of the product causing arrhythmia at a dosage of 0.09 mg/min. in a volume of 0.6 ml/min.\nThe compound is compared with quinidine at a dose of 5 mg/kg I>V> and with a series of controls.\nLots are drawn for the treatments.\nB--Action on arrhythmias with aconitine."}, "cardio-vascular system": {"system": "cardio-vascular system", "experiment": "Action on the cardio-vascular system in the anaesthetized dog", "type": "in vivo", "settings": "for minimal effective dose: Canis lupus familiaris, read-out: dose from which heart rate is significantly reduced", "procedure": "(b) Action on the cardio-vascular system (in the dog).\n(§2) 3 dogs (average weight, 12 kg) anaesthetized with nembutal, receive the compound by intra-duodenal route at successive doses of 0.1-0.5-2.5-10 and 20 mg/kg.\nThe arterial pressure, the cardiac rate, the femoral arterial flow, the vertebral arterial flow, the rectal and skin temperatures are all measured. The coloration of the skin is observed.\n(§3) 3 dogs (average weight, 14 kg) anaesthetized with nembutal, received the CRL 41,390 by intra-duodenal route, at successive doses of 0.1-0.5-1-2.5-5-10-20 mg/kg, then a supplementary dose of 10 mg/kg I.V.\nThe arterial pressure, the cardiac frequency, the femoral arterial flow, the vertebral arterial flow, the rectal and cutaneous temperatures, were measured. The coloration of the skin was observed."}, "isoprenaline": {"system": "isoprenaline", "experiment": "Effects of isoprenaline on arterial pressure and cardiac rate after the compound (dog)", "type": "in vivo", "settings": "after CRL 41,390", "procedure": "as §3"}, "noradrenaline": {"system": "noradrenaline", "experiment": "Hypertension with noradrenaline after the compound (dog)", "type": "in vivo", "settings": "after CRL 41,390", "procedure": "as §2, §3\nHypertension to noradrenaline is not modified: at 2 mcg/kg of noradrenaline, the systolic arterial pressure passes, after administration of the product, from 160 to 290 mmHg/161 to 289 mmHg in the control."}, "awakened dog": {"system": "awakened dog", "experiment": "Anti-arrhythmic action on the awakened dog", "type": "in vivo"}, "[4]": {"settings": "I.D. 0.1-20 mg/kg then 10 mg/kg I.V."}}, "note": "Where a name gives a salt, the structure may show the parent alone. Read-outs that look alike come from different tables or passages of the source."}
{"smiles": "CCOC(=O)C1CCCN(CCCC(=O)c2c(OC)cc(OC)cc2OC)C1", "note": "(centres unmarked) [CRL 41,389, ethyl N-[3-(2,4,6-trimethoxybenzoyl)propyl] nipecotate hydrochloride]", "values": [{"measurement": "amphetaminic stereotypies", "setting": "[1]", "result": "moderate potentialization"}, {"measurement": "intergroup aggressivity", "setting": "intergroup aggressivity", "result": "reduction of intergroup aggressivity"}, {"measurement": "reserpinic hypothermia", "setting": "reserpinic hypothermia", "result": "aggravation of reserpinic hypothermia"}, {"measurement": "minimal effective dose", "setting": "[2]; Canis lupus familiaris, iv, read-out: dose from which arrhythmias are reduced", "result": 2.5, "unit": "mg/kg"}, {"measurement": "arrhythmias caused by I.V. adrenaline", "setting": "[2]; from 2.5 mg/kg", "result": "reduces arrhythmias"}, {"measurement": "effect in man", "setting": "man", "result": "anti-depressant stimulant"}]}
{"smiles": "COc1cc(OC)c(C(=O)CCCN2CCCC(C)C2)c(OC)c1", "note": "(centres unmarked) [CRL 41,034, (2,4,6-trimethoxyphenyl)-[3-(3-methylpiperidino)propyl] ketone]", "values": [{"measurement": "effect on the arterial pressure", "setting": "arterial pressure", "result": "hypotensive effect"}]}
{"smiles": "C=C[C@H]1C[N@@]2CC[C@H]1C[C@@H]2[C@@H](O)c1ccnc2ccc(OC)cc12", "note": "[quinidine, reference compound]", "values": [{"measurement": "appearance of ventricular tachycardia due to aconitine", "setting": "[3]; quinidine 5 mg/kg I.V.", "result": "significantly retards only the appearance of ventricular tachycardia"}, {"measurement": "retardation of ventricular tachycardia (average)", "setting": "[3]; quinidine 5 mg/kg I.V.", "result": "+30%"}, {"measurement": "retardation compared with the compound according to the invention", "setting": "[3]; quinidine 5 mg/kg I.V. vs compound 10 mg/kg I.V.", "result": "significantly less than that observed with the compound according to the invention"}]}
{"smiles": "COc1cc(OC)c(C(=O)CCCN2CCCC(C(=O)O)C2)c(OC)c1.Cl", "note": "(centres unmarked) [CRL 41,390, N-[3-(2,4,6-trimethoxybenzoyl)propyl]-3-piperidine carboxylic acid hydrochloride]", "values": [{"measurement": "effect on vertebral flow", "setting": "cardio-vascular system; 20 mg/kg", "result": "reduction in the vertebral flow"}, {"measurement": "effect on femoral flow", "setting": "cardio-vascular system; 20 mg/kg, particularly in a dog", "result": "slight increase in the femoral flow"}, {"measurement": "minimal effective dose", "setting": "cardio-vascular system; intraduodenal", "result": 20, "unit": "mg/kg"}, {"measurement": "minimal effective dose", "setting": "cardio-vascular system; iv, I.V.", "result": 2.5, "unit": "mg/kg"}, {"measurement": "effect on rectal and cutaneous temperatures", "setting": "cardio-vascular system; [4]", "result": "moderately reduced"}, {"measurement": "effect on the arterial pressure", "setting": "cardio-vascular system; [4]", "result": "no effect on the arterial pressure"}, {"measurement": "effect on heart rate", "setting": "cardio-vascular system; from I.V. 2.5 mg/kg and intraduodenal 20 mg/kg", "result": "significantly reduces the heart rate"}, {"measurement": "diastolic arterial pressure after the product, with isoprenaline", "setting": "isoprenaline; 10 mcg/kg isoprenaline, control 35", "result": 44, "unit": "mmHg"}, {"measurement": "cardiac frequency after the product, with isoprenaline", "setting": "isoprenaline; 10 mcg/kg isoprenaline, control 272", "result": 250, "unit": "beats/min."}, {"measurement": "effects of isoprenaline on diastolic arterial pressure and cardiac frequency", "setting": "isoprenaline", "result": "slightly reduced"}, {"measurement": "diastolic arterial pressure after the product, before isoprenaline", "setting": "isoprenaline; control 135", "result": 131, "unit": "mmHg"}, {"measurement": "cardiac frequency after the product, before isoprenaline", "setting": "isoprenaline; control 185", "result": 148, "unit": "beats/min."}, {"measurement": "systolic arterial pressure after the product, with noradrenaline", "setting": "noradrenaline; 2 mcg/kg noradrenaline, control 289", "result": 290, "unit": "mmHg"}, {"measurement": "hypertension to noradrenaline", "setting": "noradrenaline", "result": "not modified"}, {"measurement": "systolic arterial pressure after the product, before noradrenaline", "setting": "noradrenaline; control 161", "result": 160, "unit": "mmHg"}, {"measurement": "anti-arrhythmic action", "setting": "awakened dog", "result": "no anti-arrhythmic action"}]}
